Test results: patent US20130296316A1, “Antiparasitic Agents Based On mTOR Inhibitors” (priority 2010, published 2013)
Where two headings read alike, the source gives them in different places.

Legend:
[1] = target: PI3K p110α (Homo sapiens, UniProt P42336); settings: human enzyme, Table 1; cited from earlier work
[2] = test system: human cells; settings: literature, Table 1; read-out: Inhibition of Cell Growth EC50; cited from earlier work
[3] = test system: L. major promastigotes; assay: Potency assessment against Leishmania major promastigotes (growth, cell counting); format: cell-based; settings: for EC50 / IC50: Leishmania major; for EC50: promastigotes, average of three replicates, read-out: Effective concentration (EC50) L. major; for activity against L. major promastigotes in words: highest concentration tested; for IC50: Table 2B, read-out: L. major Promastigote IC50, growth inhibition
[4] = target: mTOR (Homo sapiens, UniProt P42345); settings: cited from earlier work; for mTOR IC50 in words: mammalian cells / literature
[5] = test system: T. cruzi trypomastigotes; assay: T. cruzi intracellular replication in NIH/3T3 host cells (β-galactosidase, CPRG); format: cell-based, Trypanosoma cruzi; settings: Trypanosoma cruzi; for EC50: NIH3T3, 96 h, trypomastigotes with 3T3 host cells, four days, three replicates within ±10.2%, read-out: Effective concentration (EC50) T. cruzi; for IC50: NIH3T3, Table 2B, read-out: T. Cruzi IC50, growth inhibition
[6] = test system: L. donovani axenic amastigotes; assay: Potency assessment against Leishmania donovani axenic amastigotes (growth, cell counting); format: cell-based; settings: for EC50 / IC50: Leishmania donovani; for EC50: axenic amastigotes, average of three replicates, read-out: Effective concentration (EC50) L. donovani axenic amastigotes; for activity against L. donovani axenic amastigotes in words: highest concentration tested; for IC50: Table 2B, read-out: L. donovani Axenic Amastigote IC50, growth inhibition
[7] = test system: T. brucei brucei Lister 427; assay: Potency assessment against T. brucei brucei Lister 427 bloodstream form (AlamarBlue, 72 h); format: cell-based, Trypanosoma brucei brucei; settings: Trypanosoma brucei
[8] = test system: T. b. rhodesiense; assay: Potency assessment against T. b. rhodesiense EATRO3 bloodstream form (AlamarBlue, 72 h); format: cell-based, Trypanosoma brucei rhodesiense; settings: Trypanosoma brucei, RHODESIENSE; for IC50: Table 2B, read-out: T. brucei rhod IC50, growth inhibition
[9] = test system: L. donovani promastigotes; assay: Potency assessment against Leishmania donovani promastigotes (growth, cell counting); format: cell-based; settings: Leishmania donovani; for IC50: Table 2B, read-out: L. donovani Promastigote IC50, growth inhibition; for EC50: promastigotes, average of three replicates, read-out: Effective concentration (EC50) L. donovani promastigotes
[10] = test system: T. brucei brucei Lister 427 bloodstream cells; assay: Morphological and cell cycle alterations in T. brucei (flow cytometry); format: cell-based, Trypanosoma brucei brucei; settings: 16 h, WYE-354 2 μM; for effect on cellular DNA content / cell cycle, T. b. brucei: PI-103 1 μM, Pp242 2 μM, NVP-BEZ235 100 nM
Description: Flow cytometry was used to assess cell size and DNA content, to reveal a G1 arrest and inhibition of protein synthesis or G2 arrest and multinucleated cells. […]. After permeabilization with […], saponin (0.5 mg/mL final concentration), the culture was RNAse treated for 30 minutes (10 μg/mL final concentration) and stained with 20 μg/mL propidium iodide immediately before its acquisition in a FACscan cytometer. Cells incubated with equivalent concentration of drug solvent (DMSO) were included in each experiment as control population.

[11] = test system: Leishmania; assay: Leishmania growth inhibition summarised across both species and stages; format: cell-based; settings: range over L. major and L. donovani, promastigotes and amastigotes
[12] = test system: L. major promastigotes; assay: Cell size and DNA content analysis in Leishmania (flow cytometry); format: cell-based, Leishmania major
Description: L. major log phase promastigotes were inoculated at a concentration of 10^6 cells/ml into media with compounds as indicated, and incubated overnight with varying drug concentrations to assess cell size and DNA content. For cell size, forward scatter of live promastigotes was measured by a FACS flow cytometer (Becton Dickinson), utilizing dye exclusion with 5 μg/ml propidium iodide (PI) to gate for live cells. DNA content was determined by flow cytometry using fixed and permeabilized L. major stained with PI as previously described, but reducing the incubation time with PI and RNase A from 1 hour to 30 minutes. Histogram analysis was performed using CellQuest 3.1 software (BD Bioscience).

[13] = test system: T. brucei gambiense, ELIANE strain; assay: Potency assessment against T. b. gambiense ELIANE bloodstream form; format: cell-based, Trypanosoma brucei gambiense; settings: Trypanosoma brucei, GAMBIENSE; Table 3; read-out: EC50 T. b. gambiense ELIANE
[14] = test system: T. b. brucei Lister 927; assay: Potency assessment against T. b. brucei Lister 927; format: cell-based, Trypanosoma brucei brucei; settings: Trypanosoma brucei; Table 3
Description: Assays were performed using the strain of T. brucei brucei Lister 427 adapted to the laboratory, and the human-infective strain T. b. rhodesiense (EATRO3 ETat1.2 TREU164 [37]). Both strains were grown and tested as bloodstream forms. To establish the EC50, cultures of Trypanosoma brucei and T. b. rhodesiense were treated with two-fold increasing concentrations of compounds (with similar DMSO increasing concentration as control). Cell populations were measured at 72 hours with an Infinite F200 microplate reader (Tecan Austria GmbH, Austria); the determination of cell viability was carried out by the established colorimetric technique AlamarBlue® with modifications, a 96-well plate format spectrophotometric assay which measures the ability of living cells to reduce resazurin [38,39]. Data obtained with T. b. brucei Lister 427 were confirmed by manual counting in a Neubauer chamber for a direct microscopic examination to rule out multinucleated phenotypes that could mask the colorimetric assays, as well as the subtraction of solvent background to dismiss a potential solvent-derived fluorescence. Pentamidine was used as drug control for potency comparison, and T. b. brucei Lister 927 strain was included in our experiments to evaluate the adaptation to medium for the different strains as a variable condition.

[15] = bloodstream form, average of three replicates, read-out: Effective concentration (EC50) T. b. brucei
[16] = overnight, PI-103 4 μM, WYE-354 25 μM, NVP-BEZ235 0.5 μM (EC60-EC90)
[17] = bloodstream form, average of three replicates, read-out: Effective concentration (EC50) T. b. rhodesiense

Sequence of PI3K p110α (P42336 whole entry): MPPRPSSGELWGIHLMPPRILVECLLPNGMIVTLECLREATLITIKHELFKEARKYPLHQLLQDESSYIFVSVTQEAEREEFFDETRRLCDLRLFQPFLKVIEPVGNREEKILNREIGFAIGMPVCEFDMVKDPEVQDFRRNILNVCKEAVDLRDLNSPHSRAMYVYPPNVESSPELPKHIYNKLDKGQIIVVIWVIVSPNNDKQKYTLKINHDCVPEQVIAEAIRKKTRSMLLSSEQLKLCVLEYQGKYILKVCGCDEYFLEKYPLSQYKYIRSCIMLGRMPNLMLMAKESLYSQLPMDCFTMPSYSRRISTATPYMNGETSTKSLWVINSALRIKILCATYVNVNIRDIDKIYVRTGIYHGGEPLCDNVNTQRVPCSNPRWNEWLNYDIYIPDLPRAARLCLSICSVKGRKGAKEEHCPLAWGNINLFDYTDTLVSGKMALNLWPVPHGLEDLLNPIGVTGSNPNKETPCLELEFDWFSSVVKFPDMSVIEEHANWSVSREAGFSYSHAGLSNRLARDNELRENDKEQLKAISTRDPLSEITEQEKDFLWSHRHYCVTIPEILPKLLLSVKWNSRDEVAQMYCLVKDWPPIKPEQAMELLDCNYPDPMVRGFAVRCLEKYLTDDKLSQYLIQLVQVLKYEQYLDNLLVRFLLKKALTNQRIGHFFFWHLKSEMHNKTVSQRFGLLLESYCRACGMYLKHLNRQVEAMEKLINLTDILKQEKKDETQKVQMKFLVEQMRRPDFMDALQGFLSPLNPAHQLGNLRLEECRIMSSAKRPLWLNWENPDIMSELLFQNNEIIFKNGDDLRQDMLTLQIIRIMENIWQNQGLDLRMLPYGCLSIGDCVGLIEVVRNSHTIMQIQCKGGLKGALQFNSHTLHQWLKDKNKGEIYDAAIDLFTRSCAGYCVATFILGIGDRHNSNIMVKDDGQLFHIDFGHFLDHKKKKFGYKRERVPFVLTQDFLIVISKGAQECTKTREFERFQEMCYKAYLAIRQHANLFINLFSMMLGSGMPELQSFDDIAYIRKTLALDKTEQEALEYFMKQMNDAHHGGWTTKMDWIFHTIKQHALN
Sequence of PI3K p110α (P27986 whole entry partner): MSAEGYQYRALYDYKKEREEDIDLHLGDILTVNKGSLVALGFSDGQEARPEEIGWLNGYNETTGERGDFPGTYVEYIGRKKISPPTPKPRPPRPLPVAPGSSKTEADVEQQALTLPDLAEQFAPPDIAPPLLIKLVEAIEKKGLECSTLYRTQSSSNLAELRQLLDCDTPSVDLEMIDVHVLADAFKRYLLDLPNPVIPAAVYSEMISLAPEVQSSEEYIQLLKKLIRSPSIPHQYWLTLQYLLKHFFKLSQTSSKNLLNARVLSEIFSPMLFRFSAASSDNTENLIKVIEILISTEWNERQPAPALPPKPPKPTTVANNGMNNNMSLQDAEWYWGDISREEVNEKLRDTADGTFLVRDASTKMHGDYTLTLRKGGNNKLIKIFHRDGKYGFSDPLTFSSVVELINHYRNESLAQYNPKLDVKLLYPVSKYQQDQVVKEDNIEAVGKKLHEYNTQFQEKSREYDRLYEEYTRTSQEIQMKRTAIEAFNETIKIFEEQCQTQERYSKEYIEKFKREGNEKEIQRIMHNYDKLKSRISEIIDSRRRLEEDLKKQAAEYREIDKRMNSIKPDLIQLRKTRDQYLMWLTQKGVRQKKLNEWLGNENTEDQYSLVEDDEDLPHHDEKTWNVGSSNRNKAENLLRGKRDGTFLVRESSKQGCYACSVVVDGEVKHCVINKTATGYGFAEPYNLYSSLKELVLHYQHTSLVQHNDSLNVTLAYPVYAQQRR

## O=c1cc(N2CCOCC2)nc2c3ccccc3ccn12 [Compound 401, 2-(morpholin-1-yl)pyrimido[2,1-alpha]isoquinolin-4-one]
[1]
  IC50: > 100 µM
[2]
  EC50: 1 µM
[3]
  EC50: > 25 µM
  activity against L. major promastigotes in words: inactive
[4]
  mTOR IC50 in words: low micromolar concentrations
[5]
  EC50: > 10 µM
[6]
  EC50: > 5 µM
  activity against L. donovani axenic amastigotes in words: inactive
[7]; [15]
  EC50: > 10 µM

## COc1ccc(-c2ccc3c(N4CCOCC4)nc(N4C[C@@H](C)O[C@@H](C)C4)nc3n2)cc1CO [Ku-0063794]
[2]
  EC50: 0.03 µM
[3]
  EC50: > 25 µM
  activity against L. major promastigotes in words: inactive
[5]
  EC50: > 10 µM
[6]
  EC50: > 5 µM
  activity against L. donovani axenic amastigotes in words: inactive
[7]; [15]
  EC50: 0.89 ± 0.14 µM

## O=c1cc(N2CCOCC2)oc2c(-c3ccccc3)cccc12 [LY294002, 2-(4-morpholinyl)-8-phenyl-4H-1-benzopyran-4-one]
[3]
  EC50: > 25 µM
  activity against L. major promastigotes in words: inactive
[5]
  EC50: > 50 µM
[6]
  EC50: > 5 µM
  activity against L. donovani axenic amastigotes in words: inactive
[7]; [15]
  EC50: > 2 µM

## O=c1cc(N2CCNCC2)oc2c(-c3ccccc3)cccc12 [LY303511, 2-piperazinyl-8-phenyl-4H-1-benzopyran-4-one]
[3]
  EC50: > 25 µM
  activity against L. major promastigotes in words: inactive
[5]
  EC50: > 10 µM
[6]
  EC50: > 5 µM
  activity against L. donovani axenic amastigotes in words: inactive
[7]; [15]
  EC50: > 2 µM

## Oc1ccccc1-c1nc(N2CCOCC2)c2cnn(C3CCN(Cc4ccccc4)CC3)c2n1 [NEU-00000231]
[8]
  IC50: 2.23 µM
[3]
  IC50: 2.78 µM
[6]
  IC50: 3.02 µM
[9]
  IC50: 8.01 µM

## c1ccc(CN2CCC(n3ncc4c(N5CCOCC5)nc(-c5ccncc5)nc43)CC2)cc1 [NEU-00000232]
[8]
  IC50: 3.05 µM
[3]
  IC50: 6.54 µM
[6]
  IC50: 2.43 µM
[9]
  IC50: 8.06 µM

## Nc1ccc(-c2nc(N3CCOCC3)c3cnn(C4CCN(Cc5ccccc5)CC4)c3n2)cc1 [NEU-00000233]
[8]
  IC50: 3.7 µM
[3]
  IC50: < 25 µM
[9]
  IC50: ~25 µM

## CC(C)(C)OC(=O)Nc1ccc(-c2nc(N3CCOCC3)c3cnn(C4CCN(Cc5ccccc5)CC4)c3n2)cc1 [NEU-00000234]
[8]
  IC50: 2.19 µM
[3]
  IC50: 5.49 µM
[6]
  IC50: 6.9 µM
[9]
  IC50: 6.34 µM

## COc1cccc(-c2nc(N3CCOCC3)c3oc4ncccc4c3n2)c1 [NEU-0000288]
[3]
  IC50: 4.07 µM
[5]
  IC50: 3.7 µM
[6]
  IC50: ~20 µM

## COc1cccc(-c2nc(N3CCCCC3)c3oc4ncccc4c3n2)c1 [NEU-0000289]
[3]
  IC50: 7.65 µM
[5]
  IC50: 3.9 µM
[6]
  IC50: ~20 µM

## c1ccc(-c2nc(N3CCOCC3)c3oc4ncccc4c3n2)cc1 [NEU-0000290]
[3]
  IC50: > 20 µM
[5]
  IC50: 1.5 µM
[6]
  IC50: > 20 µM

## c1ccc(-c2nc(N3CCCCC3)c3oc4ncccc4c3n2)cc1 [NEU-0000291]
[3]
  IC50: > 10 µM
[5]
  IC50: 12 µM
[6]
  IC50: > 10 µM

## CCOCCNc1nc(-c2ccccc2)nc2c1oc1ncccc12 [NEU-0000292]
[3]
  IC50: 4 µM
[5]
  IC50: > 50 µM
[6]
  IC50: 12.5 µM

## CCOCCNc1nc(-c2cccc(OC)c2)nc2c1oc1ncccc12 [NEU-0000361]
[8]
  IC50: > 5 µM
[5]
  IC50: > 50 µM

## CCOCCNc1nc(-c2cccc(O)c2)nc2c1oc1ncccc12 [NEU-0000362]
[8]
  IC50: > 1 µM
[5]
  IC50: > 50 µM

## CCOc1ccccc1-c1nc(N2CCOCC2)c2oc3ncccc3c2n1 [NEU-0000363]
[8]
  IC50: > 5 µM
[5]
  IC50: > 50 µM

## CCOc1ccccc1-c1nc(N2CCCCC2)c2oc3ncccc3c2n1 [NEU-0000364]
[8]
  IC50: > 5 µM
[5]
  IC50: > 50 µM

## COc1ccc(-c2nc(N3CCOCC3)c3oc4ncccc4c3n2)cc1 [NEU-0000365]
[8]
  IC50: > 5 µM
[5]
  IC50: > 50 µM

## Oc1cccc(-c2nc(N3CCOCC3)c3oc4ncccc4c3n2)c1 [PI-103]
[10]
  effect on cellular DNA content / cell cycle, T. b. brucei: G1 arrest
[11]; read-out: inhibition of Leishmania across both species and stages
  EC50: 0.32 to 1.05 µM
[12]; [16]
  effect on cell size and DNA content, L. major promastigotes: G1 arrest and a decrease in cell size
[2]
  EC50: 0.5 µM
[8]; [17]
  EC50: 0.105 ± 0.01 µM
[8]; read-out: activity against T. b. rhodesiense cultures
  EC50: 0.1 µM
[3]
  EC50: 0.32 ± 0.16 µM
[5]
  EC50: > 25 µM
[6]
  EC50: 0.62 ± 0.41 µM
[9]
  EC50: 1.05 ± 0.28 µM
[7]; [15]
  EC50: 0.214 ± 0.036 µM
[7]; read-out: activity against T. b. brucei cultures
  EC50: 0.2 µM

## N=C(N)c1ccc(OCCCCCOc2ccc(C(=N)N)cc2)cc1 [Pentamidine]
[13]
  EC50: 0.0025 ± 0.0005 µM
[8]; Table 3, read-out: EC50 T. b. rhodesiense EATRO3
  EC50: 0.0037 ± 0.0004 µM
[14]
  EC50: 0.0303 ± 0.0104 µM
[7]; Table 3, read-out: EC50 T. b. brucei 427
  EC50: 0.0042 ± 0.0002 µM

## CC(C)n1nc(-c2cc3cc(O)ccc3[nH]2)c2c(N)ncnc21 [Pp242]
[10]
  effect on cellular DNA content / cell cycle, T. b. brucei: G1 arrest
[12]; higher concentrations of Pp242
  effect on cell size and DNA content, L. major promastigotes: G2 arrest and increase in cell size
[12]; lower concentrations of Pp242
  effect on cell size and DNA content, L. major promastigotes: decrease in cell size and a G1 arrest

## COC(=O)Nc1ccc(-c2nc(N3CCOCC3)c3cnn(C4CCN(C(=O)OC)CC4)c3n2)cc1 [WYE-354]
[1]
  IC50: 1 µM
[10]
  effect on cellular DNA content / cell cycle, T. b. brucei: no significant variations in cell cycle
  effect on cell size, T. b. brucei: small but noticeable reduction in cell size
[11]; read-out: activity against Leishmania across both species and stages
  EC50: 4 to 6 µM
[12]; [16]
  effect on cell size and DNA content, L. major promastigotes: G1 arrest and a decrease in cell size
[2]
  EC50: 0.03 µM
[8]; [17]
  EC50: 0.78 ± 0.08 µM
[3]
  EC50: 4.1 ± 0.3 µM
[4]; human enzyme, Table 1
  IC50: 0.004 µM
[4]
  mTOR IC50 in words: low nanomolar
[5]
  EC50: > 10 µM
[6]
  EC50: 6.1 ± 1.73 µM
[9]
  EC50: 5.95 ± 0.84 µM
[7]; [15]
  EC50: 0.58 ± 0.26 µM
